Measurements as given in ChEMBL document CHEMBL1157403, “Lanostane-type triterpenoids from the roots of Kadsura coccinea” (2008).

System: HL-60
Experiment: Antiproliferative activity against human HL60 cells after 3 days by trypan blue staining
Type: functional
Settings: HL-60, 72 h

**Q.** With `O=c1[nH]cc(F)c(=O)[nH]1` [FLUOROURACIL] as the compound, how does the GI50 read?
**A.** The GI50 was 3.8 µM.

**Q.** `C=C(C)[C@@H]1CC=C2[C@H](CC[C@]3(C)[C@@H]([C@H](C)CC(=O)CC(C)C)CC[C@@]23C)[C@@]1(C)CCC(=O)O` [SECO-COCCINIC ACID A] was tested. Which GI50 did it give?
**A.** The GI50 was 6.8 µM.

**Q.** How did the GI50 turn out when `C=C(C)[C@@H]1CC=C2[C@H](CC[C@]3(C)[C@@H]([C@H](C)CC(=O)C=C(C)C)CC[C@@]23C)[C@@]1(C)CCC(=O)O` [SECO-COCCINIC ACID B] was run?
**A.** Its GI50 is 13.3 µM.

**Q.** Which GI50 does the source give for `C=C(C)[C@@H]1CC=C2[C@H](CC[C@]3(C)[C@@H]([C@H](C)CC(=O)CC(C)(C)O)CC[C@@]23C)[C@@]1(C)CCC(=O)O` [SECO-COCCINIC ACID C] here?
**A.** Its GI50 is 12.1 µM.

**Q.** How did the GI50 turn out when `C=C(C)[C@H](O)CC[C@@H](C)[C@H]1CC[C@@]2(C)C3=CC[C@@H](C(=C)C)[C@](C)(CCC(=O)O)[C@@H]3CC[C@]12C` [SECO-COCCINIC ACID E] was run?
**A.** The GI50 was 42.1 µM.
